Results published in the supplement of paper PMC10307832.

Legend:
Test in all cases: relative viability (nuclei count vs DMSO), 5 days (fraction); higher = more cells survive
Linsitinib = compound: C[C@]1(O)C[C@@H](c2nc(-c3ccc4ccc(-c5ccccc5)nc4c3)c3c(N)nccn32)C1 [Linsitinib]
Summary of the method: (§1)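 Viability was defined as treated-well nuclei divided by vehicle-well nuclei, with the median taken over replicate plates. Cells from lung cancer lines sat overnight at 37 °C in 1536-well plates, received five √10-spaced library-drug doses by pinning on vehicle-anchored plates, and grew 5 days without medium change before one-step fixation, permeabilisation and Hoechst staining, 4× imaging and MetaXpress nuclear counts. Only plates with control CV under 25% and at least one doubling were kept.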

Ispinesib = compound: Cc1ccc(C(=O)N(CCCN)[C@@H](c2nc3cc(Cl)ccc3c(=O)n2Cc2ccccc2)C(C)C)cc1 [Ispinesib]
Summary of the method: as §1

Ispinesib + Decitabine = compound: Cc1ccc(C(=O)N(CCCN)[C@@H](c2nc3cc(Cl)ccc3c(=O)n2Cc2ccccc2)C(C)C)cc1 [Ispinesib] + Nc1ncn([C@H]2C[C@H](O)[C@@H](CO)O2)c(=O)n1 [Decitabine] (partner 2 µM)
Summary of the method: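 The day after seeding in 1536-well plates, lung cancer cell lines were treated by pin tool with a single drug, or with a fixed anchor-drug dose together with five library-drug doses (not always all listed) in √10 steps. After 5 days, a combined fix-and-stain solution (final 0.05% Triton X-100, 1% formaldehyde, 1 ug/ml Hoechst) was added. Nuclei counted on 4× images gave relative viability as treated counts over vehicle counts, reported as the median of duplicate plates.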

With UMC-11 as the cell line, how does the relative viability (Linsitinib; 0.01 µM) read?
The relative viability was 0.975.

And the relative viability (Linsitinib; 0.03162 µM)?
Its relative viability is 0.854.

And the relative viability (Linsitinib; 0.1 µM)?
The relative viability was 1.02.

What about the relative viability (Linsitinib; 0.3162 µM) of the same cell line?
The relative viability was 0.546.

What about the relative viability (Linsitinib; 1 µM) of the same cell line?
Its relative viability is 0.875.

And the relative viability (Linsitinib; 1 µM, anchor plate)?
Its relative viability is 1.01.

And the relative viability (Ispinesib; 0.001 µM)?
Its relative viability is 1.01.

What about the relative viability (Ispinesib; 0.003162 µM) of the same cell line?
The relative viability was 1.02.

What about the relative viability (Ispinesib; 0.01 µM) of the same cell line?
Its relative viability is 0.835.

And the relative viability (Ispinesib; 0.03162 µM)?
The relative viability was 0.32.

And the relative viability (Ispinesib; 0.1 µM)?
The relative viability was 0.264.

And the relative viability (Ispinesib + Decitabine; first compound 0.001 µM)?
Its relative viability is 0.67.

What about the relative viability (Ispinesib + Decitabine; first compound 0.003162 µM) of the same cell line?
The relative viability was 0.904.

What about the relative viability (Ispinesib + Decitabine; first compound 0.01 µM) of the same cell line?
The relative viability was 0.583.

What about the relative viability (Ispinesib + Decitabine; first compound 0.03162 µM) of the same cell line?
The relative viability was 0.28.

What about the relative viability (Ispinesib + Decitabine; first compound 0.1 µM) of the same cell line?
Its relative viability is 0.23.
